*1 amine or outer side, *2 acyl side, *3 side chain or, on linkers, in order; H or OH if unused. Where a SMILES comes first, the peptide text is derived from it. [ ]: non-standard residue; d: D form. The star is where a group is joined. Dnp = O=[N+]([O-])c1ccc(*)c([N+](=O)[O-])c1; X2 = O=C([C@H](CCCCOCc1ccccc1)N[*:1])[*:2]; X1 = O=C([C@H](CCCCOc1ccccc1)N[*:1])[*:2]; Mca = COc1ccc2c(CC(=O)*)cc(=O)oc2c1; Dap = NC[C@H](N)C(=O)O
Tests used:
MMP-1 = molecular target: T1, MMP-1 (Homo sapiens, UniProt P03956); assay: Km and kcat/Km of substrates with MMP-1; format: biochemical; details: summary of Table 1
T1 sequence (P03956 100-469): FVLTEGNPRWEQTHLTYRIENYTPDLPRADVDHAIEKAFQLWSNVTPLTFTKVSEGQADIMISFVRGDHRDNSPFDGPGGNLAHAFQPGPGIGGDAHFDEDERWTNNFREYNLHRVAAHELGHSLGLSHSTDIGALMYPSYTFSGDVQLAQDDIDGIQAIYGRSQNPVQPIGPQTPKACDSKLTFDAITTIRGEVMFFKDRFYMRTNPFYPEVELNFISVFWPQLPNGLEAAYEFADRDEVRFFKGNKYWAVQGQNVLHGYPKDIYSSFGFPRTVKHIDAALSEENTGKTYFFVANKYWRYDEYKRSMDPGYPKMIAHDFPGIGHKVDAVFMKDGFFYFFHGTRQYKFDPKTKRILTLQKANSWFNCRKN

MMP-7 = molecular target: T2, MMP-7 (Homo sapiens, UniProt P09237); assay: Km and kcat/Km of substrates with MMP-7; format: biochemical; details: summary of Table 1
T2 sequence (P09237 95-267): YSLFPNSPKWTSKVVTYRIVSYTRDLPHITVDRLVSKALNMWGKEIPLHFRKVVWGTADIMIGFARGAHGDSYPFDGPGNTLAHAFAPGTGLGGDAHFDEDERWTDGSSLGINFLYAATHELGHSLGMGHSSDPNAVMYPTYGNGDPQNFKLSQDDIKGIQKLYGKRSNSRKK

[1] = octanol/water; Tao et al., J. Mol. Model. 1999; cited from earlier work

COc1ccc2c(CC(=O)N[C@H](CCCNC(=N)N)C(=O)N3CCC[C@H]3C(=O)N[C@@H](CC(C)C)C(=O)NCC(=O)N[C@@H](CCCCOc3ccccc3)C(=O)N[C@@H](CNc3ccc([N+](=O)[O-])cc3[N+](=O)[O-])C(=O)N[C@@H](C)C(=O)N[C@H](CCCNC(=N)N)C(=O)N[C@H](CCC(=O)O)C(=O)N[C@H](CCCNC(=N)N)C(N)=O)cc(=O)oc2c1 [Compound 25, N-2-[(7-methoxy-2-oxo-2H-chromen-4-yl)acetyl]-D-arginyl-L-prolyl-L-leucylglycyl-6-phenoxy-L-norleucyl-3-[(2,4-dinitrophenyl)amino]-L-alanyl-L-alanyl-D-arginyl-D-alpha-glutamyl-D-argininamide] (Mca-[dR]PLG[X1][Dap](Dnp)A[dR][dE][dR]-NH2)
kcat with MMP-1 (in words) (MMP-1): low kcat or kcat of zero
kcat with MMP-7 (in words) (MMP-7): low kcat or kcat of zero

N=C(N)NCCC[C@H](N)C(=O)O [arginine]
Log D contribution in a peptide [1]: −1.65

NC(=O)C[C@H](N)C(=O)O [asparagine]
Log D contribution in a peptide [1]: −0.98

C[C@@H](O)[C@H](N)C(=O)O [threonine]
Log D contribution in a peptide [1]: −0.26

N[C@@H](Cc1c[nH]cn1)C(=O)O [histidine]
Log D contribution in a peptide [1]: −0.44

N[C@@H](CC(=O)O)C(=O)O [aspartic acid]
Log D contribution in a peptide [1]: −2.06

NCCCC[C@H](N)C(=O)O [lysine]
Log D contribution in a peptide [1]: −2.27

N[C@@H](CCC(=O)O)C(=O)O [glutamic acid]
Log D contribution in a peptide [1]: −2.19

NCC(=O)O [glycine]
Log D contribution in a peptide [1]: −0.22

COc1ccc2c(CC(=O)N[C@@H](CCCNC(=N)N)C(=O)N3CCC[C@H]3C(=O)N[C@@H](CC(C)C)C(=O)NCC(=O)N[C@@H](CCCCOCc3ccccc3)C(=O)N[C@@H](CNc3ccc([N+](=O)[O-])cc3[N+](=O)[O-])C(=O)N[C@@H](C)C(=O)N[C@@H](CCCNC(=N)N)C(=O)N[C@@H](CCC(=O)O)C(=O)N[C@@H](CCCNC(=N)N)C(N)=O)cc(=O)oc2c1 [Compound 20, N-2-[(7-methoxy-2-oxo-2H-chromen-4-yl)acetyl]-L-arginyl-L-prolyl-L-leucylglycyl-6-(benzyloxy)-L-norleucyl-3-[(2,4-dinitrophenyl)amino]-L-alanyl-L-alanyl-L-arginyl-L-alpha-glutamyl-L-argininamide] (Mca-RPLG[X2][Dap](Dnp)ARER-NH2)
kcat with MMP-1 (in words) (MMP-1): low kcat or kcat of zero
kcat with MMP-7 (in words) (MMP-7): low kcat or kcat of zero

COc1ccc2c(CC(=O)N[C@H](CCCNC(=N)N)C(=O)N3CCC[C@H]3C(=O)N[C@@H](CC(C)C)C(=O)NCC(=O)N[C@@H](CCCCOCc3ccccc3)C(=O)N[C@@H](CNc3ccc([N+](=O)[O-])cc3[N+](=O)[O-])C(=O)N[C@@H](C)C(=O)N[C@H](CCCNC(=N)N)C(=O)N[C@H](CCC(=O)O)C(=O)N[C@H](CCCNC(=N)N)C(N)=O)cc(=O)oc2c1 [Compound 21, N-2-[(7-methoxy-2-oxo-2H-chromen-4-yl)acetyl]-D-arginyl-L-prolyl-L-leucylglycyl-6-(benzyloxy)-L-norleucyl-3-[(2,4-dinitrophenyl)amino]-L-alanyl-L-alanyl-D-arginyl-D-alpha-glutamyl-D-argininamide] (Mca-[dR]PLG[X2][Dap](Dnp)A[dR][dE][dR]-NH2)
kcat with MMP-1 (in words) (MMP-1): low kcat or kcat of zero
kcat with MMP-7 (in words) (MMP-7): low kcat or kcat of zero

C[C@H](N)C(=O)O [alanine]
Log D contribution in a peptide [1]: −0.27
